Results reported in patent US12404289B2 (Gilead Sciences, Inc., priority 2020, dated 2025).

Test system: Respiratory syncytial virus (RSV) strain A2
Experiment: Hep-2 RSV2 384-well assay (EC50-HEP2-384)
Type: cell-based
Conditions: HEp-2 cells, RSV A2, MOI=4, 4 days, Table 3

Row | Structure (SMILES) | EC50
1 | CCC(=O)O[C@H]1[C@@H](OC(=O)CC)[C@](C#N)(c2ccc3c(N)ncnn23)O[C@@H]1COP(=O)(N[C@@H](C)C(=O)OC1CC2(CCCC2)C1)Oc1ccc(C(C)(C)C)cc1 (stereo partly drawn) [Example 99b, (2R,3R,4R,5R)-2-(4-aminopyrrolo[2,1-f][1,2,4]triazin-7-yl)-5-((((4-(tert-butyl)phenoxy)(((S)-1-oxo-1-(spiro[3.4]octan-2-yloxy)propan-2-yl)amino)phosphoryl)oxy)methyl)-2-cyanotetrahydrofuran-3,4-diyl Dipropionate] | 66.9 nM
2 | CC(C)C(=O)O[C@H]1[C@@H](OC(=O)C(C)C)[C@](C#N)(c2ccc3c(N)ncnn23)O[C@@H]1COP(=O)(N[C@@H](C)C(=O)OC1CC2(CCCC2)C1)Oc1ccc(C(C)(C)C)cc1 (stereo partly drawn) [Example 100b, (2R,3R,4R,5R)-2-(4-aminopyrrolo[2,1-f][1,2,4]triazin-7-yl)-5-((((4-(tert-butyl)phenoxy)(((S)-1-oxo-1-(spiro[3.4]octan-2-yloxy)propan-2-yl)amino)phosphoryl)oxy)methyl)-2-cyanotetrahydrofuran-3,4-diyl bis(2-methylpropanoate)] | 95.5 nM

Same assay, conditions: human respiratory syncytial virus, HEp-2, 96 h, HEp-2 cells, RSV A2, MOI=4, 4 days, Table 3

Row | Structure (SMILES) | EC50
3 | COC(C)COC(=O)[C@H](C)NP(=O)(OC[C@H]1O[C@@](C#N)(c2ccc3c(N)ncnn23)[C@H](O)[C@@H]1O)Oc1ccc(C(C)(C)C)cc1 (stereo partly drawn) [Example 155, 2-methoxypropyl ((((2R,3S,4R,5R)-5-(4-aminopyrrolo[2,1-f][1,2,4]triazin-7-yl)-5-cyano-3,4-dihydroxytetrahydrofuran-2-yl)methoxy)(4-(tert-butyl)phenoxy)phosphoryl)-L-alaninate] | 683 nM
4 | CCC(CC)COC(=O)[C@H](C)NP(=O)(OC[C@H]1O[C@@](C#N)(c2ccc3c(N)ncnn23)[C@H](O)[C@@H]1O)Oc1ccc(N2CCOCC2)cc1 (stereo partly drawn) [Example 92, 2-ethylbutyl ((((2R,3S,4R,5R)-5-(4-aminopyrrolo[2,1-f][1,2,4]triazin-7-yl)-5-cyano-3,4-dihydroxytetrahydrofuran-2-yl)methoxy)(4-morpholinophenoxy)phosphoryl)-L-alaninate] | 2490 nM
5 | COC(C)(C)COC(=O)[C@H](C)NP(=O)(OC[C@H]1O[C@@](C#N)(c2ccc3c(N)ncnn23)[C@H](OC(C)=O)[C@@H]1OC(C)=O)Oc1ccc(C(C)(C)C)cc1 (stereo partly drawn) [Example 131, (2R,3R,4R,5R)-2-(4-aminopyrrolo[2,1-f][1,2,4]triazin-7-yl)-5-((((4-(tert-butyl)phenoxy)(((S)-1-(2-methoxy-2-methylpropoxy)-1-oxopropan-2-yl)amino)phosphoryl)oxy)methyl)-2-cyanotetrahydrofuran-3,4-diyl Diacetate] | 56.2 nM
6 | CC(C)C(=O)O[C@H]1[C@@H](OC(=O)C(C)C)[C@](C#N)(c2ccc3c(N)ncnn23)O[C@@H]1COP(=O)(N[C@@H](C)CC(=O)OC1CCC1)Oc1ccc(C(C)(C)C)cc1 (stereo partly drawn) [Example 167, (2R,3R,4R,5R)-2-(4-aminopyrrolo[2,1-f][1,2,4]triazin-7-yl)-5-((((4-(tert-butyl)phenoxy)(((S)-4-cyclobutoxy-4-oxobutan-2-yl)amino)phosphoryl)oxy)methyl)-2-cyanotetrahydrofuran-3,4-diyl bis(2-methylpropanoate)] | 5000 nM
7 | COC(C)COC(=O)[C@H](C)NP(=O)(OC[C@H]1O[C@@](C#N)(c2ccc3c(N)ncnn23)[C@H](OC(=O)C(C)C)[C@@H]1OC(=O)C(C)C)Oc1ccc(C(C)(C)C)cc1 (stereo partly drawn) [Example 162, (2R,3R,4R,5R)-2-(4-aminopyrrolo[2,1-f][1,2,4]triazin-7-yl)-5-((((4-(tert-butyl)phenoxy)(((2S)-1-(2-methoxypropoxy)-1-oxopropan-2-yl)amino)phosphoryl)oxy)methyl)-2-cyanotetrahydrofuran-3,4-diyl bis(2-methylpropanoate)] | 72.5 nM
